Assay results reported in the supplement of paper PMC10307832.

Compound: CCn1c(-c2nonc2N)nc2c(C#CC(C)(C)O)ncc(OC[C@H]3CCCNC3)c21 + N=C(N)NC(=N)NCCc1ccccc1 [Phenformin] (partner 250 µM)
Assay: relative viability (nuclei count vs DMSO), 5 days (fraction); higher = more cells survive
Conditions: first compound 0.01 µM
Outline: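 Lung cancer cell lines were pin-tool dosed in 1536-well plates on the day after seeding, with either a lone drug or a fixed anchor-drug dose plus five library-drug doses (not always all listed) in √10 steps. Nuclei were counted on 4× images after 5 days. Relative viability is the ratio of treated-well to vehicle-well nuclei counts, with each value a median of duplicate plates.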

Going from PC-14 to EKVX, the relative viability falls from 0.448 to 0.232.

First: LC-2-ad
Second: NCI-H1944
The relative viability of the first is higher: 0.571 for the first, 0.196 for the second.

Compared with NCI-H1975, RERF-LC-KJ is lower in relative viability: 0.4 for the first, 0.391 for the second.

First: ABC-1
Second: NCI-H358
The relative viability of the first is lower: 0.244 for the first, 0.39 for the second.

With NCI-H650 the relative viability was 0.435.

Same assay, conditions: first compound 0.03162 µM

Compared with NCI-H322M, LCLC-97TM1 is lower in relative viability: 0.727 for the first, 0.49 for the second.

First: NCI-H2009
Second: A-427
The relative viability of the first is higher: 0.491 for the first, 0.387 for the second.

First: NCI-H441
Second: NCI-H661
The relative viability of the first is higher: 0.888 for the first, 0.259 for the second.

First: NCI-H1734
Second: NCI-H460
The relative viability of the first is lower: 0.425 for the first, 0.561 for the second.

Going from NCI-H2347 to SK-LU-1, the relative viability rises from 0.307 to 0.575.

Compared with NCI-H1395, 201T is higher in relative viability: 0.416 for the first, 0.438 for the second.

Compared with NCI-H1915, HCC-827 is lower in relative viability: 0.385 for the first, 0.37 for the second.

Going from LXF-289 to NCI-H23, the relative viability rises from 0.54 to 0.783.

Compared with NCI-H647, CAL-12T is higher in relative viability: 0.573 for the first, 0.579 for the second.

First: NCI-H1651
Second: EPLC-272H
The relative viability of the first is higher: 0.387 for the first, 0.333 for the second.

First: NCI-H2228
Second: NCI-H1792
The relative viability of the first is higher: 0.36 for the first, 0.291 for the second.

Going from NCI-H1355 to NCI-H3122, the relative viability falls from 0.458 to 0.364.

Compared with NCI-H1437, NCI-H1755 is higher in relative viability: 0.34 for the first, 0.606 for the second.

First: NCI-H2023
Second: HCC-15
The relative viability of the first is lower: 0.409 for the first, 0.502 for the second.

Compared with NCI-H1793, PC-14 is higher in relative viability: 0.436 for the first, 0.519 for the second.

First: EKVX
Second: LC-2-ad
The relative viability of the first is lower: 0.231 for the first, 0.523 for the second.

First: NCI-H1944
Second: NCI-H1975
The relative viability of the first is lower: 0.196 for the first, 0.394 for the second.

Compared with RERF-LC-KJ, ABC-1 is lower in relative viability: 0.408 for the first, 0.204 for the second.

First: NCI-H358
Second: NCI-H650
The relative viability of the first is lower: 0.321 for the first, 0.414 for the second.

Same assay, conditions: first compound 0.1 µM

First: NCI-H322M
Second: LCLC-97TM1
The relative viability of the first is higher: 0.677 for the first, 0.444 for the second.

Compared with NCI-H2009, A-427 is lower in relative viability: 0.519 for the first, 0.263 for the second.

Going from NCI-H441 to NCI-H661, the relative viability falls from 0.833 to 0.265.

First: NCI-H1734
Second: NCI-H460
The relative viability of the first is lower: 0.335 for the first, 0.523 for the second.

First: SK-LU-1
Second: NCI-H1395
The relative viability of the first is higher: 0.455 for the first, 0.418 for the second.

First: 201T
Second: NCI-H1915
The relative viability of the first is higher: 0.437 for the first, 0.36 for the second.

Compared with HCC-827, LXF-289 is higher in relative viability: 0.388 for the first, 0.507 for the second.

First: NCI-H23
Second: NCI-H647
The relative viability of the first is higher: 0.817 for the first, 0.554 for the second.

First: CAL-12T
Second: NCI-H1651
The relative viability of the first is higher: 0.588 for the first, 0.382 for the second.

First: EPLC-272H
Second: NCI-H2228
The relative viability of the first is higher: 0.32 for the first, 0.298 for the second.

Compared with NCI-H1792, NCI-H1355 is higher in relative viability: 0.258 for the first, 0.417 for the second.

Going from NCI-H3122 to NCI-H1437, the relative viability falls from 0.447 to 0.293.

First: NCI-H1755
Second: NCI-H2023
The relative viability of the first is higher: 0.614 for the first, 0.412 for the second.

First: HCC-15
Second: NCI-H1793
The relative viability of the first is higher: 0.456 for the first, 0.371 for the second.

Going from PC-14 to EKVX, the relative viability falls from 0.597 to 0.217.

First: LC-2-ad
Second: NCI-H1944
The relative viability of the first is higher: 0.556 for the first, 0.207 for the second.

Going from NCI-H1975 to RERF-LC-KJ, the relative viability rises from 0.393 to 0.438.

Compared with ABC-1, NCI-H358 is higher in relative viability: 0.236 for the first, 0.338 for the second.

NCI-H650 was tested, and the relative viability was 0.429.

Same assay, conditions: first compound 0.3162 µM

First: NCI-H322M
Second: LCLC-97TM1
The relative viability of the first is higher: 0.7 for the first, 0.435 for the second.

First: NCI-H2009
Second: A-427
The relative viability of the first is higher: 0.458 for the first, 0.339 for the second.

Going from NCI-H441 to NCI-H661, the relative viability falls from 0.801 to 0.145.

Compared with NCI-H1734, NCI-H460 is higher in relative viability: 0.323 for the first, 0.495 for the second.

First: NCI-H2347
Second: SK-LU-1
The relative viability of the first is lower: 0.381 for the first, 0.48 for the second.

Compared with NCI-H1395, 201T is higher in relative viability: 0.376 for the first, 0.435 for the second.

Compared with NCI-H1915, HCC-827 is higher in relative viability: 0.357 for the first, 0.402 for the second.

First: LXF-289
Second: NCI-H23
The relative viability of the first is lower: 0.511 for the first, 0.8 for the second.

Compared with NCI-H647, CAL-12T is higher in relative viability: 0.399 for the first, 0.554 for the second.

Going from NCI-H1651 to EPLC-272H, the relative viability rises from 0.28 to 0.291.

Going from NCI-H2228 to NCI-H1792, the relative viability falls from 0.277 to 0.262.

First: NCI-H1355
Second: NCI-H3122
The relative viability of the first is higher: 0.434 for the first, 0.389 for the second.

Going from NCI-H1437 to NCI-H1755, the relative viability rises from 0.239 to 0.613.

First: NCI-H2023
Second: HCC-15
The relative viability of the first is lower: 0.3 for the first, 0.395 for the second.

Compared with NCI-H1793, PC-14 is higher in relative viability: 0.331 for the first, 0.531 for the second.

Compared with EKVX, LC-2-ad is higher in relative viability: 0.217 for the first, 0.537 for the second.

Going from NCI-H1944 to NCI-H1975, the relative viability rises from 0.181 to 0.389.

First: RERF-LC-KJ
Second: ABC-1
The relative viability of the first is higher: 0.356 for the first, 0.228 for the second.

Compared with NCI-H358, NCI-H650 is higher in relative viability: 0.315 for the first, 0.415 for the second.

Same assay, conditions: first compound 1 µM

Going from NCI-H322M to LCLC-97TM1, the relative viability falls from 0.744 to 0.427.

Compared with NCI-H2009, A-427 is lower in relative viability: 0.452 for the first, 0.326 for the second.

Compared with NCI-H441, NCI-H661 is lower in relative viability: 0.715 for the first, 0.239 for the second.

Compared with NCI-H1734, NCI-H460 is higher in relative viability: 0.267 for the first, 0.541 for the second.

Going from NCI-H2347 to SK-LU-1, the relative viability rises from 0.396 to 0.537.

Compared with NCI-H1395, 201T is higher in relative viability: 0.388 for the first, 0.431 for the second.

Going from NCI-H1915 to HCC-827, the relative viability rises from 0.36 to 0.402.

Compared with LXF-289, NCI-H23 is higher in relative viability: 0.534 for the first, 0.781 for the second.

Going from NCI-H647 to CAL-12T, the relative viability rises from 0.345 to 0.469.

Going from NCI-H1651 to EPLC-272H, the relative viability falls from 0.337 to 0.255.

Going from NCI-H2228 to NCI-H1792, the relative viability rises from 0.204 to 0.299.

Going from NCI-H1355 to NCI-H3122, the relative viability falls from 0.483 to 0.374.

First: NCI-H1437
Second: NCI-H1755
The relative viability of the first is lower: 0.306 for the first, 0.605 for the second.

Going from NCI-H2023 to HCC-15, the relative viability rises from 0.34 to 0.404.

Compared with NCI-H1793, PC-14 is higher in relative viability: 0.401 for the first, 0.609 for the second.

Going from EKVX to LC-2-ad, the relative viability rises from 0.195 to 0.614.

Going from NCI-H1944 to NCI-H1975, the relative viability rises from 0.196 to 0.352.

First: RERF-LC-KJ
Second: ABC-1
The relative viability of the first is higher: 0.416 for the first, 0.255 for the second.

Compared with NCI-H358, NCI-H650 is higher in relative viability: 0.32 for the first, 0.444 for the second.
